Laboratory results reported in patent US5464865A, “4-aryl- and 4-arylthio-5-hydroxy-2(5H)-furanones as inhibitors of phospholipase A2” (Ortho Pharmaceutical Corporation, priority 1993, dated 1995).
pIC50: −log10 of the molar value.

Experiments:
[1] = target: T1, human platelet phospholipase A2 (Homo sapiens, UniProt P14555); experiment: Inhibition of human platelet phospholipase A2 (14C-oleate E. coli substrate); format: biochemical; conditions: for pIC50: pH 7.0, 37°, 60 min incubation, read-out: Inhibition of PLA2, IC50; for inhibition at 50 µM: read-out: Inhibition of PLA2, % Inhibition @ 50 μM
T1 construct: a preparation of human platelet phospholipase A2; from tissue; host or cells: human platelets
T1 sequence (P14555 21-144): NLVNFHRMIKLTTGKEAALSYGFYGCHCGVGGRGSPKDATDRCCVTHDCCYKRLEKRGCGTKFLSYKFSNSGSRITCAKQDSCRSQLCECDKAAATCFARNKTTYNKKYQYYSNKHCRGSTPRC
Protocol: The activity of the compounds of the invention against phospholipase A2 is determined using a preparation of human platelet phospholipase A2 with a specific activity of 180 nmol/min/mg as the enzyme source. Polypropylene 15-ml test tubes are utilized as the reaction vessels. All drug samples are run in duplicate, with "blank" and "control" (no test compound) groups run in triplicate. […] Test compounds are dissolved in DMSO, and diluted to a projected final concentration of either 50 or 10 μM in 550 μl HEPES buffer at pH 7.0. A 1:7 dilution of human platelet PLA2 in HEPES buffer (5 μl) is added to each test tube, followed by gentle vortexing for 3 seconds. The reaction tubes containing drug, buffer, and enzyme are preincubated for 15 min at 37°, followed by the addition of 25 μl of ^14 C-oleate E. coli substrate. Details regarding this substrate may be found in a publication by S. Ghosh and R. Franson, Biochem. Cell. Biol., 70, 43 (1992), and references therein.
The tubes are immediately vortexed at moderate speed for 3 sec, followed by a 60 min incubation at 37° in a shaking water bath. The reaction is stopped by the addition of 3 ml of a 1:2 chloroform-methanol mixture. Additional water (1.5 ml) and chloroform (1.0 ml) are added, followed by vortexing. The lower phase is removed with a polypropylene transfer pipette, and transferred to a 13×100 mm polypropylene test tube. The organic solvent is evaporated with a stream of nitrogen, the residue is redissolved in 30 μl of a 9:1 chloroform-methanol mixture, and the solution is spotted on a channeled polyester-backed silica gel TLC plate, such as those available under the trade name PE SIL G available from Whatman Inc, Clifton, N.J.
The plate is developed with an 80:20:1 mixture of petroleum ether-diethyl ether-acetic acid. […] The plate is scored above the origin, cut along the score with scissors, and the reactant (origin) and product portions of each channel are put into separate scintillation vials. To each vial is added a scintillation cocktail (15 ml), preferably that sold under the trademark ECOLUME by ICN Biomedicals, Irvine Calif. The vials are shaken vigorously for 5 sec, and the radioactive ^14 C in each vial is measured with a scintillation counter, which provides the counts-per-minute (cpm) for each sample. The obtained cpm values are corrected for the "blank" values.
The percentage of phospholipid hydrolyzed is calculated by the formula:
Phospholipid converted=100×cpm products / (cpm products+cpm
The inhibition of phospholipase A2 by the test compounds is expressed as a percent inhibition relative to the control group:
% Inhibition=[…]

[2] = system: TPA-induced inflammation in the mouse ear; experiment: Topical anti-inflammatory activity: TPA-induced inflammation (edema) in the mouse ear; format: in vivo, mouse (male CD-1); conditions: for inhibition in vivo at 100 µg/ear: Mus musculus, @ 100 μg, 5-6 h after TPA; for Inhibition of ear edema, IC50: multiple-dose experiment, dose for 50% inhibition of weight gain
Protocol: The topical anti-inflammatory activity of the compounds is determined by measuring the degree of inhibition of TPA-induced inflammation in the mouse ear, using essentially the procedure of C. Van Arman, Clin. Pharmacol. Ther., 16, 900 (1974). Male CD-1 mice are used at seven to nine weeks of age. 12-O-tetradecanoylphorbol acetate ([…] in 20 μl of acetone) is dispensed onto the dorsum of the left ear of each mouse, and the right ear is left untreated. Ten mice so treated serve as the control group. […]
After five to six hours, the animals are sacrificed by CO2 inhalation, the ears are removed, and 7 mm circular punch biopsies of are taken from each ear and weighed. The difference in biopsy weight between treated and untreated ears is determined, and the degree of anti-inflammatory activity is expressed in terms of the percent inhibition of ear weight increase relative to the control group. In multiple-dose experiments, varying amounts of the compound to be tested are applied along with the TPA and the results are expressed as the ED50, the dose at which a 50% inhibition of weight gain is observed.

Compound | pIC50 [1] | inhibition at 50 µM [1] [%] | Inhibition of ear edema, IC50 [2] [µg] | inhibition at 10 µM ([1]; @ 10 μM (values marked *), read-out: Inhibition of PLA2, % Inhibition @ *10 μM) [%] | inhibition in vivo at 100 µg/ear [2] [%]
CCCCC/C=C\C/C=C\CCCCCCCCOc1cccc(C2=CC(=O)OC2O)c1 (stereo not shown) [Example 40, (Z,Z)-5-Hydroxy-4-((3-(octadeca-9,12-dienyl)oxy)phenyl)-2(5H)-furanone] | 5.15 | 100 | – | – | 80
O=C1C=C(c2ccc(C(=O)/C=C/c3ccc4ccccc4c3)cc2)C(O)O1 (stereo not shown) [Example 30, (E)-5-Hydroxy-4-(4-(3-(2-naphthyl)-1-oxo-2-propenyl)phenyl)-2(5H)-furanone] | 5.15 | 92 | 80 | – | 66
C=CCCCCCCCCC(=O)c1ccc(C2=CC(=O)OC2O)cc1 (stereo not shown) [Example 28, 5-Hydroxy-4-(4-(1-oxoundec-10-en-1-yl)phenyl)-2(5H)-furanone] | 5.05 | 86 | – | – | 0
O=C1C=C(c2ccc(/C=C/c3ccccc3)cc2)C(O)O1 (single isomer, unassigned) [Example 34, (E)-5-Hydroxy-4-(4-(2-phenylethenyl)phenyl)-2(5H)-furanone] | 4.52 | 91 | – | – | 33
O=C1C=C(c2ccc(OCc3ccc(C#Cc4ccccc4)cc3)cc2)C(O)O1 (stereo not shown) [Example 44, 5-Hydroxy-4-(4-((4-(2-phenylethynyl)phenyl)methoxy)phenyl)-2(5H)-furanone] | – | 90 | – | – | 43
CCCCCCCCNS(=O)(=O)c1ccc(C2=CC(=O)OC2O)cc1 (stereo not shown) [Example 45, 5-Hydroxy-4-(4-(octylaminosulfonyl)phenyl)-2(5H)-furanone] | – | 13 | – | – | –
O=C1C=C(c2ccc(COc3ccc4ccccc4c3)cc2)C(O)O1 (stereo not shown) [Example 52, 5-Hydroxy-4-(4-(2-naphthyloxymethyl)phenyl)-2(5H)-furanone] | 4.30 | 51 | – | – | –
CC(C)c1cc(C2=CC(=O)OC2O)cc(C(C)C)c1O (stereo not shown) [Example 47, 5-Hydroxy-4-(3,5-bis(1-methylethyl)-4-hydroxyphenyl)-2(5H)-furanone] | – | – | – | 2 | –

Further lines, with some results ahead:

pIC50 [1] | inhibition at 50 µM [1] [%] | Inhibition of ear edema, IC50 [2] [µg] | inhibition at 10 µM ([1]; @ 10 μM (values marked *), read-out: Inhibition of PLA2, % Inhibition @ *10 μM) [%] | Compound | inhibition in vivo at 100 µg/ear [2] [%]
– | 75 | 28 | – | CC1=C(C/C=C(\C)CSc2ccc(C3=CC(=O)OC3O)cc2)C(C)(C)CCC1 (stereo not shown) [Example 18, (E)-5-Hydroxy-4-(4-(2-methyl-4-(2,6,6-trimethyl-1-cyclohexen-1-yl)-2-butenylthio)phenyl)-2(5H)-furanone] | 70
4.85 | 91 | 300 | – | CCCCCCCCOc1ccc(C2=CC(=O)OC2O)cc1 (stereo not shown) [Example 1, 5-Hydroxy-4-(4-octyloxyphenyl)-2(5H)furanone] | 56
5.85 | 67 | – | – | CC1=C(CCCCCCCOc2ccc(C3=CC(=O)OC3O)cc2)C(C)(C)CCC1 (stereo not shown) [Example 27, 5-Hydroxy-4-(4-(7-(2,6,6-trimethyl-1-cyclohexen-1-30 yl)heptyloxy)phenyl)-2(5H)-furanone] | 35
4.70 | 95 | 94 | – | CC1=C(CCC(C)Oc2ccc(C3=CC(=O)OC3O)cc2)C(C)(C)CCC1 (stereo not shown) [Example 39, (E)-5-Hydroxy-4-(4-((1-methyl-3-(2,6,6-trimethyl-1-cyclohexen-1-yl)propyl)oxy)phenyl)-2(5H)-furanone] | 48
– | 94 | – | – | CC1=C(CC/C=C(\C)COc2ccc(C3=CC(=O)OC3O)cc2)C(C)(C)CCC1 (stereo not shown) [Example 15, (E)-5-Hydroxy-4-(4-(2-methyl-5-(2,6,6-trimethyl-1-cyclohexen-1-yl)-2-pentenyloxy)phenyl)-2(5H)-furanone] | 49
– | 47 | – | – | O=C1C=C(c2ccc(OCCOc3ccc4ccccc4c3)cc2)C(O)O1 (stereo not shown) [Example 12, 5-Hydroxy-4-[4-(2-(2-naphthyloxy)ethoxy)phenyl]-2(5H)furanone] | 45
